# From patent US11365207B2, “Sulfur-containing polycyclic-hydroxypyridone carboxamide analog against HIV” (priority 2018, dated 2022)
# Counter-ions that a name gives are not always drawn. Like-named read-outs stand apart in the source and are kept apart here.
# What was measured:
# Assay type in all cases: cell-based
# HIV-1IIIB [1] = assay: Inhibition of replication in HIV-1IIIB acute infectious C8166 cells (p24 antigen capture ELISA); conditions: for EC50: Human immunodeficiency virus 1, 72 h, P24 antigen, HIV-1IIIB acute infectious C8166 cells, 3 days; for inhibitory effect on HIV-1 replication in vitro: statement in words
# Procedure: (§1) Human T lymphocytic series C8166 and HIV-1 experiment strain HIV-1IIIB are both from National Institutes of Health (NIH); cells are cultured in the RPMI-1640 complete culture medium containing 10% fetal bovine serum. HIV-1IIIB is prepared by using a conventional method, titration and calculation of TCID 50 of viruses are performed. Virus stock solution is subpackaged and stored at −70° C. Cells and viruses are cryopreserved and recovered according to conventional methods.
# 5. Measurement of HIV-1 p24 Antigen with p24 Antigen Capture ELISA Method
# The 1 μg/plate of anti-mouse IgG Fc antibody was paved at 4° C. for overnight; the plate was sealed with 5% skimmed milk powder 4° C. for overnight; 100 μl/well mouse anti-p24 monoclonal antibody was added at 37° C. for 1 h; 100 μl/well (1:100) diluted rabbit anti-p24 polyclonal antibody (homemade) was added for 1 h at 37° C.; 100 μl/well (1:20000) diluted goat anti-rabbit IgG HRP was added for 1 h at 37° C.; OPD substrate reaction solution was added. After 10 min, 2M sulfuric acid was added to stop the reaction. The OD value was determined by Elx800 ELISA, and the wavelength was measured as 490/630 nm. The inhibition rate and EC50 of the drug on the p24 antigen replication and expression of HIV-1, namely, the concentration of the drug inhibiting 50% HIV-1 p24 antigen were calculated, namely, the concentration of the drug inhibiting 50% HIV-1 p24 antigen expression was calculated.
# 8. Inhibition Effect of Samples on Replication in Experiment Strain HIV-1IIIB Acute Infectious C8166 Cells
# 4×10^5 cells/ml C8166 cells and HIV-1IIIB MOI (multiplicity of infection=0.04) are infected for 2 h at 37° C., the obtained mixture is washed three times with PBS to remove free virus ions, 100 μl of cells are inoculated onto the 96-well plate containing 100 μl of to-be-detected compounds having different dilutions and cultured for 3 days under the conditions of 37° C. and 5% CO2. The cultural supernatant is centrifuged and then collected, and finally lysed and inactivated with 0.5% Triton X-100. The inhibition effect of the drug on HIV-1 replication is detected by using the p24 antigen capture ELISA method.
# (§2) According to experiment results, fitted curves are drawn using Origin2016, the 50% effective concentrations (EC50) of the samples inhibiting viruses, 50% cell growth inhibition concentrations (CC50) and TI (therapeutic index) value against HIV-1 activity are calculated based on Reed & Muench method, and the TI value is TI=CC50/EC50.
# 3. HIV-1 p24 antigen expression inhibition rate (%)=(1−experiment well OD value/control well OD value)×100
# HIV-1IIIB [2] = assay: Inhibition experiment for cytopathic effect (CPE) of HIV-1IIIB, syncytia formation in C8166 cells; conditions: Human immunodeficiency virus 1, 72 h, HIV-1IIIB in C8166 cells, 3 days
# Procedure: as §1
# 7. Inhibition Experiment for Cytopathic Effect (CPE) of HIV-1IIIB
# 8×10^5/ml C8166 cells were inoculated onto the 96-well cell culture plate containing 100 μl/well drug subjected to gradient multiple proportion dilution in an amount of 50 μl/well, and then 50 μl HIV-1IIIB was added to dilute the supernatant, 1300 TCID 50/well. 3 repetition wells were set. Meanwhile, normal cell control wells without drugs were set. TDF and dolutegravir were positive drug controls. Culture was performed for 3 days under the conditions of 37° C. and 5% CO2, and syncytia formation were counted under the inverted microscope (100×). EC50 (50% Effective Concentration) is the concentration of the drug when 50% of syncytia formation is inhibited.
# as §2
# 2. HIV-1 cytopathic cell inhibition rate (%)=(1−experiment well syncytia number/control well syncytia number)×100
# [3] = Toxicity test of C8166 cells (MTT colorimetric method); conditions: human
# Procedure: as §1
# 6. Toxicity Test of C8166 Cells
# 100 μl of 4×10^5 ml C8166 was mixed with different to-be-detected drug solutions, and 3 repetition wells were set. Meanwhile, control wells were set. Culture was performed for 3 days under the conditions of 37° C. and 5% CO2. Cytotoxicity was detected with MTT colorimetric method. The OD value was measured with EL ×800 ELIASA, the wavelength was measured as 570/630 nm. The CC50 value was calculated (50% cytotoxic concentration), namely, the concentration of the drug when toxicity was generated for 50% normal T lymphocytic series C8166.
# as §2
# 1. Cell growth survival rate (%)=experiment well OD value/control well OD value×100
# [4] = C8166 cells (T lymphocytic cell line), C8166 cells, MTT, 3 days, read-out: CC50
Compound,EC50 (HIV-1IIIB [1]; values given in pM) [nM],EC50 (HIV-1IIIB [2]; values given in pM) [nM],"CC50 at 3 days [3, 4] [nM]",also measured
"C[C@@H]1CCO[C@H]2Cn3cc(C(=O)NCc4ccc(F)cc4F)c(=O)c(O)c3C(=O)N12 [Dolutegravir, reference compound]",–,–,26600 ± 2200,EC50 (HIV-1IIIB [1]; values in nM): 1.05 ± 0.12 nM; EC50 (HIV-1IIIB [2]; values in nM): 2.13 ± 0.33 nM
CC(C)[C@H]1CSC2Cn3cc(C(=O)NCc4ccc(F)cc4F)c(=O)c(O)c3C(=O)N21 (stereo partly shown) [Compound 6],0.208 ± 0.0361,0.182 ± 0.0203,22600 ± 480,–
O=C(NCc1ccc(F)cc1F)c1cn2c(c(O)c1=O)C(=O)N1C(C2)SC[C@@H]1c1ccccc1 (stereo partly shown) [Compound 10],–,–,45160 ± 410,EC50 (HIV-1IIIB [1]; values in nM): 4.16 ± 0.58 nM; EC50 (HIV-1IIIB [2]; values in nM): 3.82 ± 0.51 nM
"CC(C)OC(=O)OCOP(=O)(CO[C@H](C)Cn1cnc2c(N)ncnc21)OCOC(=O)OC(C)C [TDF, tenofovir disoproxil fumarate, reference compound]",–,–,157000 ± 21400,EC50 (HIV-1IIIB [1]; values in nM): 8.07 ± 4.72 nM; EC50 (HIV-1IIIB [2]; values in nM): 12.1 ± 11.3 nM
O=C(NCc1ccc(F)cc1F)c1cn2c(c(O)c1=O)C(=O)N1C(C2)SC[C@@H]1Cc1ccccc1 (stereo partly shown) [Compound 12],0.589 ± 0.0861,0.526 ± 0.0771,28600 ± 320,–
O=C(NCc1c(F)cc(F)cc1F)c1cn2c(c(O)c1=O)C(=O)N1C(C2)S[C@@H]2CC[C@H]1C2 (stereo partly shown) [Compound 34],0.0381 ± 0.00652,0.0359 ± 0.00611,–,inhibitory effect on HIV-1 replication in vitro (HIV-1IIIB [1]): extremely strong inhibition effects; inhibitory effect on HIV-1 replication in vitro (HIV-1IIIB [1]; listed as compound 34): strong inhibitory effect; CC50 at 3 days [3]: 20700 ± 320 nM
CC(C)(C)[C@H]1CSC2Cn3cc(C(=O)NCc4ccc(F)cc4F)c(=O)c(O)c3C(=O)N21 (stereo partly shown) [Compound 8],0.781 ± 0.113,0.716 ± 0.103,26300 ± 350,–

# The remaining compounds from weak to strong by EC50 (HIV-1IIIB [1]; values given in pM), led by results:
EC50 (HIV-1IIIB [1]; values given in pM) [nM],EC50 (HIV-1IIIB [2]; values given in pM) [nM],Compound,"CC50 at 3 days [3, 4] [nM]",also measured
0.201 ± 0.0333,0.187 ± 0.0311,C[C@@H]1CSC2Cn3cc(C(=O)NCc4ccc(F)cc4F)c(=O)c(O)c3C(=O)N21 (stereo partly shown) [Compound 1],20300 ± 210,–
0.188 ± 0.0228,0.162 ± 0.0181,CC(C)C1CSC2Cn3cc(C(=O)NCc4ccc(F)cc4F)c(=O)c(O)c3C(=O)N21 (stereo not shown) [Compound 5],16100 ± 300,–
0.148 ± 0.0201,0.125 ± 0.017,CC(C)C[C@H]1CSC2Cn3cc(C(=O)NCc4ccc(F)cc4F)c(=O)c(O)c3C(=O)N21 (stereo partly shown) [Compound 20],18300 ± 190,–
0.0836 ± 0.0109,0.0754 ± 0.00861,C[C@H]1CSC2Cn3cc(C(=O)NCc4ccc(F)cc4)c(=O)c(O)c3C(=O)N21 (stereo partly shown) [Compound 66],20100 ± 210,inhibitory effect on HIV-1 replication in vitro (HIV-1IIIB [1]): strong inhibitory effect
0.0351 ± 0.00602,0.0289 ± 0.00511,CC[C@@H]1CSC2Cn3cc(C(=O)NCc4ccc(F)cc4F)c(=O)c(O)c3C(=O)N21 (stereo partly shown) [Compound 3],18600 ± 350,–
0.0351 ± 0.00602,0.0289 ± 0.00511,CC[C@H]1CSC2Cn3cc(C(=O)NCc4ccc(F)cc4F)c(=O)c(O)c3C(=O)N21 (stereo partly shown) [Compound 4],18600 ± 350,–
0.0181 ± 0.00286,0.0157 ± 0.00261,C[C@H]1CSC2Cn3cc(C(=O)NCc4ccc(F)cc4F)c(=O)c(O)c3C(=O)N21 (stereo partly shown) [Compound 2],11330 ± 110,inhibitory effect on HIV-1 replication in vitro (HIV-1IIIB [1]): extremely strong inhibition effects; inhibitory effect on HIV-1 replication in vitro (HIV-1IIIB [1]; listed as compound 2): strong inhibitory effect
0.0111 ± 0.00209,0.0102 ± 0.00211,C[C@@H]1CCSC2Cn3cc(C(=O)NCc4ccc(F)cc4F)c(=O)c(O)c3C(=O)N21 (stereo partly shown) [Compound 18],14000 ± 210,inhibitory effect on HIV-1 replication in vitro (HIV-1IIIB [1]): extremely strong inhibition effects; inhibitory effect on HIV-1 replication in vitro (HIV-1IIIB [1]; listed as compound 18): strong inhibitory effect
